Experimental findings from patent US20250296971A1, “GASTRIC INHIBITORY PEPTIDE RECEPTOR LIGANDS” (priority 2021, published 2025) are described below.

The experiment concerns the target T1, GIPR (CHO-K1-hGIPR cells) (Homo sapiens, UniProt P48546).
T1 construct: host or cells: CHO-K1
T1 sequence (P48546 22-466): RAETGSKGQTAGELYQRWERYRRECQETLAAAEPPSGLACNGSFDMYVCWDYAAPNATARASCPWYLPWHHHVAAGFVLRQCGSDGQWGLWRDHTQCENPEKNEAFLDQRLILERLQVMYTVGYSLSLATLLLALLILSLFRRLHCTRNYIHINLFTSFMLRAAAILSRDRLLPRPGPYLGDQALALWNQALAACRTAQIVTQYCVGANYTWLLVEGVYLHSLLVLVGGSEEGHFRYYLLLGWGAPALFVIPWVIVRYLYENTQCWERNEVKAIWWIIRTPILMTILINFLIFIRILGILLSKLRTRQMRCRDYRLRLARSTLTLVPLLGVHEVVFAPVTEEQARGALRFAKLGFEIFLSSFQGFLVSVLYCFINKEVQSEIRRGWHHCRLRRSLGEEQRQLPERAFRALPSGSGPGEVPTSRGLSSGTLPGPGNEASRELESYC
Kind of experiment: FACS binding assay. The following applies: competition with 20 nM GIP-057, 4° C., 1 hour, read-out: pIC50 Category (converted). The procedure, abridged:
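Peptide binding read by flow cytometry as APC-channel median fluorescence, fitted with a four-parameter logistic to yield EC50 or IC50. Cells were hGIPR-transfected CHO-K1 in PBS with 1% FCS, detected with 1 μg/mL APC-streptavidin, 30 min on ice.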
Background: A flow cytometer gives signals particle by particle.

*1 amine or outer side, *2 acyl side, *3 side chain or, on linkers, in order; H or OH if unused. Where a SMILES comes first, the peptide text is derived from it. Bridges are numbered along the chain shown (N, C = ends). [ ]: non-standard residue; d: D form. The star is where a group is joined. X3 = O=C(O)CN1CCN(CC(=O)O)CCN(CC(=O)NCCCOCCOCCOCCCN*)CCN(CC(=O)O)CC1; DOTA = O=C(O)CN1CCN(CC(=O)O)CCN(CC(=O)*)CCN(CC(=O)O)CC1; Trp(5-Cl) = N[C@@H](Cc1c[nH]c2ccc(Cl)cc12)C(=O)O; Pro(3S-OH) = O=C(O)[C@H]1NCC[C@@H]1O; X29 = c1cc(CNCCN[*:2])cc(C[*:1])c1; X6 = c1cc(CSCCN[*:2])nc(C[*:1])c1; X7 = c1cc(CSCCN[*:2])cc(C[*:1])c1; Hyp = O=C(O)[C@@H]1C[C@@H](O)CN1; X1 = O=C(CN1CCC(N[*:1])CC1)[*:2]; X15 = c1ncc(C[*:1])cc1CSCCN[*:2]; Suc = O=C(CCC(=O)[*:2])[*:1]; hLeu = CC(C)CC[C@H](N)C(=O)O; αMeS = C[C@](N)(CO)C(=O)O; Api = NC1(C(=O)O)CCNCC1; Thp = NC1(C(=O)O)CCOCC1; Aib = CC(C)(N)C(=O)O; Sar = CNCC(=O)O

On to `CC[C@H](C)[C@@H]1NC(=O)[C@H](CC(C)C)NC(=O)C2(CCOCC2)NC(=O)[C@@H](NC(=O)[C@@H](CC(C)C)NC(=O)[C@H](CCC(=O)O)NC(=O)[C@@H]2CCCN2C(=O)[C@H](Cc2c[nH]c3ccc(Cl)cc23)NC(=O)[C@H](Cc2c[nH]c3ccccc23)NC(=O)[C@H](CC(=O)O)NC(=O)CCC(=O)NCCCOCCOCCOCCCNC(=O)CN2CCN(CC(=O)O)CCN(CC(=O)O)CCN(CC(=O)O)CC2)CSCc2cccc(c2)CSCCNC1=O` [GIP-087, DOTA-Ttds-Asp-Trp-5Clw-Pro-Glu-leu-[Cys(3MeBn)-Thp-Leu-Ile-AET]] ({X3-Suc}-DW[Trp(5-Cl)]PE[dL]C[Thp]LI; linker 7-C via X7), for which the IC50 is less than 10 nM. As for `CC[C@H](C)[C@@H]1NC(=O)[C@H](CC(C)C)NC(=O)C2(CCNCC2)NC(=O)[C@@H](NC(=O)[C@@H](CC(C)C)NC(=O)[C@H](CCC(=O)O)NC(=O)[C@@H]2CCCN2C(=O)[C@H](Cc2c[nH]c3ccc(Cl)cc23)NC(=O)[C@H](Cc2c[nH]c3ccccc23)NC(=O)[C@H](CC(=O)O)NC(=O)CCC(=O)NCCCOCCOCCOCCCNC(=O)CN2CCN(CC(=O)O)CCN(CC(=O)O)CCN(CC(=O)O)CC2)CSCc2cccc(c2)CSCCNC1=O` [GIP-088, DOTA-Ttds-Asp-Trp-5Clw-Pro-Glu-leu-[Cys(3MeBn)-Apc-Leu-Ile-AET]] ({X3-Suc}-DW[Trp(5-Cl)]PE[dL]C[Api]LI; linker 7-C via X7), the IC50 was less than 10 nM. With `CC[C@H](C)[C@@H]1NC(=O)[C@H](CC(C)C)NC(=O)C(C)(C)NC(=O)[C@@H](NC(=O)[C@@H](CC(C)C)NC(=O)[C@H](CCC(=O)O)NC(=O)[C@@H]2CCCN2C(=O)[C@H](Cc2c[nH]c3ccc(Cl)cc23)NC(=O)[C@H](Cc2c[nH]c3ccccc23)NC(=O)[C@H](CC(=O)O)NC(=O)CN2CCC(NC(=O)CN3CCN(CC(=O)O)CCN(CC(=O)O)CCN(CC(=O)O)CC3)CC2)CSCc2cccc(c2)CSCCNC1=O` [GIP-089, DOTA-APAc-Asp-Trp-5Clw-Pro-Glu-leu-[Cys(3MeBn)-Aib-Leu-Ile-AET]] ({DOTA}-[X1]DW[Trp(5-Cl)]PE[dL]C[Aib]LI; linker 8-C via X7) the figure was less than 10 nM. With `CC[C@H](C)[C@@H]1NC(=O)[C@H](CC(C)C)NC(=O)C(C)(C)NC(=O)[C@@H](NC(=O)[C@@H](CC(C)C)NC(=O)[C@H](CCC(=O)O)NC(=O)[C@@H]2CCCN2C(=O)[C@H](Cc2c[nH]c3ccc(Cl)cc23)NC(=O)[C@H](Cc2c[nH]c3ccccc23)NC(=O)[C@H](CC(=O)O)NC(=O)CCC(=O)NCCCOCCOCCOCCCNC(=O)CN2CCN(CC(=O)O)CCN(CC(=O)O)CCN(CC(=O)O)CC2)CSCc2cccc(n2)CSCCNC1=O` [GIP-090, DOTA-Ttds-Asp-Trp-5Clw-Pro-Glu-leu-[Cys(2Lut)-Aib-Leu-Ile-AET]] ({X3-Suc}-DW[Trp(5-Cl)]PE[dL]C[Aib]LI; linker 7-C via X6) the figure was less than 10 nM; with `CC[C@H](C)[C@@H]1NC(=O)[C@H](CC(C)C)NC(=O)C(C)(C)NC(=O)[C@@H](NC(=O)[C@@H](CC(C)C)NC(=O)[C@H](CCC(=O)O)NC(=O)[C@@H]2CCCN2C(=O)[C@H](Cc2c[nH]c3ccc(Cl)cc23)NC(=O)[C@H](Cc2c[nH]c3ccccc23)NC(=O)[C@H](CC(=O)O)NC(=O)CCC(=O)NCCCOCCOCCOCCCNC(=O)CN2CCN(CC(=O)O)CCN(CC(=O)O)CCN(CC(=O)O)CC2)CSCc2cncc(c2)CSCCNC1=O` [GIP-091, DOTA-Ttds-Asp-Trp-5Clw-Pro-Glu-leu-[Cys(3Lut)-Aib-Leu-Ile-AET]] ({X3-Suc}-DW[Trp(5-Cl)]PE[dL]C[Aib]LI; linker 7-C via X15), less than 10 nM; with `CC[C@H](C)[C@@H]1NC(=O)[C@H](CC(C)C)NC(=O)C(C)(C)NC(=O)[C@@H](NC(=O)[C@@H](CC(C)C)NC(=O)[C@H](CCC(=O)O)NC(=O)[C@@H]2CCCN2C(=O)[C@H](Cc2c[nH]c3ccc(Cl)cc23)NC(=O)[C@H](Cc2c[nH]c3ccccc23)NC(=O)[C@H](CC(=O)O)NC(=O)CCC(=O)NCCCOCCOCCOCCCNC(=O)CN2CCN(CC(=O)O)CCN(CC(=O)O)CCN(CC(=O)O)CC2)CNCc2cccc(c2)CSCCNC1=O` [GIP-092, DOTA-Ttds-Asp-Trp-5Clw-Pro-Glu-leu-[Dap(3MeBn)-Aib-Leu-Ile-AET]], less than 10 nM. With `CC[C@H](C)[C@@H]1NC(=O)[C@H](CC(C)C)NC(=O)C(C)(C)NC(=O)[C@@H](NC(=O)[C@@H](CC(C)C)NC(=O)[C@H](CCC(=O)O)NC(=O)[C@@H]2CCCN2C(=O)[C@H](Cc2c[nH]c3ccc(Cl)cc23)NC(=O)[C@H](Cc2c[nH]c3ccccc23)NC(=O)[C@H](CC(=O)O)NC(=O)CCC(=O)NCCCOCCOCCOCCCNC(=O)CN2CCN(CC(=O)O)CCN(CC(=O)O)CCN(CC(=O)O)CC2)CSCc2cccc(c2)CNCCNC1=O` [GIP-093, DOTA-Ttds-Asp-Trp-5Clw-Pro-Glu-leu-[Cys(3MeBn)-Aib-Leu-Ile-en]] ({X3-Suc}-DW[Trp(5-Cl)]PE[dL]C[Aib]LI; linker 7-C via X29) the figure was less than 10 nM; with `CC[C@H](C)[C@@H]1NC(=O)[C@H](CC(C)C)NC(=O)C(C)(C)NC(=O)[C@@H](NC(=O)[C@@H](CC(C)C)NC(=O)[C@H](CCC(=O)O)NC(=O)[C@@H]2C[C@@H](O)CN2C(=O)[C@H](Cc2c[nH]c3ccc(Cl)cc23)NC(=O)[C@H](Cc2c[nH]c3ccccc23)NC(=O)[C@H](CC(=O)O)NC(=O)CCC(=O)NCCCOCCOCCOCCCNC(=O)CN2CCN(CC(=O)O)CCN(CC(=O)O)CCN(CC(=O)O)CC2)CSCc2cccc(c2)CSCCNC1=O` [GIP-094, DOTA-Ttds-Asp-Trp-5Clw-Hyp-Glu-leu-[Cys(3MeBn)-Aib-Leu-Ile-AET]] ({X3-Suc}-DW[Trp(5-Cl)][Hyp]E[dL]C[Aib]LI; linker 7-C via X7), less than 10 nM; with `CC[C@H](C)[C@@H]1NC(=O)[C@H](CC(C)C)NC(=O)C(C)(C)NC(=O)[C@@H](NC(=O)[C@@H](CC(C)C)NC(=O)[C@H](CCC(=O)O)NC(=O)[C@@H]2CCCN2C(=O)[C@H](Cc2c[nH]c3ccc(Cl)cc23)NC(=O)[C@H](Cc2c[nH]c3ccccc23)NC(=O)[C@H](CC(=O)O)NC(=O)CCC(=O)NCCCOCCOCCOCCCNC(=O)CN2CCN(CC(=O)O)CCN(CC(=O)O)CCN(CC(=O)O)CC2)CNCc2cccc(c2)C[S+]([O-])CCNC1=O` (stereo partly drawn) [GIP-098, DOTA-Ttds-Asp-Trp-5Clw-Pro-Glu-leu-[Dap(3MeBn)-Aib-Leu-Ile-AETO]], less than 10 nM. In the case of `CC[C@H](C)[C@@H]1NC(=O)[C@H](CCC(C)C)NC(=O)C(C)(C)NC(=O)[C@@H](NC(=O)[C@@H](CC(C)C)NC(=O)[C@H](CCC(=O)O)NC(=O)[C@@H]2CCCN2C(=O)[C@H](Cc2c[nH]c3ccc(Cl)cc23)NC(=O)[C@H](Cc2c[nH]c3ccccc23)NC(=O)[C@H](CC(=O)O)NC(=O)CCC(=O)NCCCOCCOCCOCCCNC(=O)CN2CCN(CC(=O)O)CCN(CC(=O)O)CCN(CC(=O)O)CC2)CSCc2cccc(c2)CSCCNC1=O` [GIP-099, DOTA-Ttds-Asp-Trp-5Clw-Pro-Glu-leu-[Cys(3MeBn)-Aib-Hle-Ile-AET]] ({X3-Suc}-DW[Trp(5-Cl)]PE[dL]C[Aib][hLeu]I; linker 7-C via X7), the IC50 was less than 10 nM.

Consider `CC[C@H](C)[C@@H]1NC(=O)[C@H](CC(C)C)NC(=O)C(C)(C)NC(=O)[C@@H](NC(=O)[C@@H](CC(C)C)NC(=O)[C@H](CCC(=O)O)NC(=O)CN(C)C(=O)[C@H](Cc2c[nH]c3ccc(Cl)cc23)NC(=O)[C@H](Cc2c[nH]c3ccccc23)NC(=O)[C@H](CC(=O)O)NC(=O)CCC(=O)NCCCOCCOCCOCCCNC(=O)CN2CCN(CC(=O)O)CCN(CC(=O)O)CCN(CC(=O)O)CC2)CSCc2cccc(c2)CSCCNC1=O` [GIP-100, DOTA-Ttds-Asp-Trp-5Clw-Nmg-Glu-leu-[Cys(3MeBn)-Aib-Leu-Ile-AET]] ({X3-Suc}-DW[Trp(5-Cl)][Sar]E[dL]C[Aib]LI; linker 7-C via X7), for which the IC50 is less than 10 nM. Consider `CC[C@H](C)[C@@H]1NC(=O)[C@H](CC(C)C)NC(=O)[C@](C)(CO)NC(=O)[C@@H](NC(=O)[C@@H](CC(C)C)NC(=O)[C@H](CCC(=O)O)NC(=O)[C@@H]2CCCN2C(=O)[C@H](Cc2c[nH]c3ccc(Cl)cc23)NC(=O)[C@H](Cc2c[nH]c3ccccc23)NC(=O)[C@H](CC(=O)O)NC(=O)CCC(=O)NCCCOCCOCCOCCCNC(=O)CN2CCN(CC(=O)O)CCN(CC(=O)O)CCN(CC(=O)O)CC2)CSCc2cccc(c2)CSCCNC1=O` [GIP-101, DOTA-Ttds-Asp-Trp-5Clw-Pro-Glu-leu-[Cys(3MeBn)-Ams-Leu-Ile-AET]] ({X3-Suc}-DW[Trp(5-Cl)]PE[dL]C[αMeS]LI; linker 7-C via X7), for which the IC50 is less than 10 nM. With `CC[C@H](C)[C@@H]1NC(=O)[C@H](CC(C)C)NC(=O)C(C)(C)NC(=O)[C@@H](NC(=O)[C@@H](CC(C)C)NC(=O)[C@H](CCC(=O)O)NC(=O)[C@@H]2[C@@H](O)CCN2C(=O)[C@H](Cc2c[nH]c3ccc(Cl)cc23)NC(=O)[C@H](Cc2c[nH]c3ccccc23)NC(=O)[C@H](CC(=O)O)NC(=O)CCC(=O)NCCCOCCOCCOCCCNC(=O)CN2CCN(CC(=O)O)CCN(CC(=O)O)CCN(CC(=O)O)CC2)CSCc2cccc(c2)CSCCNC1=O` [GIP-102, DOTA-Ttds-Asp-Trp-5Clw-H3p-Glu-leu-[Cys(3MeBn)-Aib-Leu-Ile-AET]] ({X3-Suc}-DW[Trp(5-Cl)][Pro(3S-OH)]E[dL]C[Aib]LI; linker 7-C via X7) the figure was less than 10 nM.
